According to patent publication US11026965B2, “Nitric oxide-releasing cyclodextrins as biodegradable antibacterial scaffolds and methods pertaining thereto” (The University of North Carolina at Chapel Hill, priority 2018, dated 2021):
≈ marks a conversion by molar mass, not a printed value. Read-outs that look alike come from different tables or passages of the source.

Tests used:
planktonic P. aeruginosa = assay: Bactericidal assay against planktonic P. aeruginosa (4 h, static, MBC4h = 3-log reduction); type: cell-based, Pseudomonas aeruginosa; conditions: for MBC: Pseudomonas aeruginosa
Protocol: Nitric oxide may be an efficient antibacterial agent. The antibacterial activity of the NO-releasing CD derivatives was evaluated against Gram-negative P. aeruginosa, a model pathogen associated with serious medical infections (e.g., traumatic burns, cystic fibrosis). Pseudomonas aeruginosa is a Gram-negative pathogen. Bacterial viability assays were performed under static conditions. Minimum bactericidal concentrations over 4 hours exposure (MBC4h) were used to quantify their bactericidal activity, being required to eliminate bacteria viability by 3 logs (e.g., 99.9% killing). The total NO amount delivered by NO-releasing CD derivatives over this period was also calculated to quantitatively evaluate the required NO dose to achieve bactericidal activity.
The TSA bacterial stock of P. aeruginosa colony was cultured in 3 mL of TSB overnight (around 16 hours) at 37° C. A 1000 μL aliquot of the resulting suspension was added into 15 mL of fresh TSB and incubated at 37° C. for another 2 hours, to achieve a concentration of 10^8 colony forming units per mL (CFU/mL, confirmed by the OD600). The bacteria was collected by centrifugation, resuspended in sterile PBS, and diluted to 10^6 CFU/mL. The antibacterial efficacy of both non-NO-releasing and NO-releasing CD derivatives against P. aeruginosa was evaluated under static condition over 4 hours at 37° C. Blanks (untreated cells) were incubated in each experiment to ensure the bacteria remained viable at 10^6 CFU/mL over 4 hour assay. 100 μL aliquots of blank, control or NO-releasing CD derivatives treated bacteria suspensions were shifted, diluted 10-fold in sterile H2O and plated on TSA plates using an Eddy Jet spiral plater (IUL; Farmingdale, N.Y.), followed by incubation overnight at 37° C. Bacterial viability was evaluated via total colony count on the TSA plates by using a Flash & Go colony counter (IUL; Farmingdale, N.Y.). […] Of note, the limit of detection for this selected plate counting method is 2.5×10^3 CFU/mL.
Additional testing was done to determine the antibacterial efficacy and toxicity of DETA, DETA/NO (DETA functionalized with NO), and DETA/NO mixed with CD (at ratios of 1:1 or 1:2) as compared to CD-DETA or CD-DETA/NO (CD-DETA functionalized with NO). The same conditions as disclosed above for antibacterial testing and cytotoxicity was used.

L929 mouse fibroblasts = assay: In-vitro cytotoxicity, L929 mouse fibroblasts, MTS, 4 h exposure; type: cell-based
Protocol: L929 mouse fibroblasts were cultured in DMEM supplemented with 10% v/v fetal bovine serum (FBS) and 1 wt % penicillin/streptomycin, and incubated in 5% v/v CO2 under humidified conditions at 37° C. After reaching confluency (80%), the cells were trypsinized, seeded onto tissue-culture treated polystyrene 96-well plates at a density of 1×10^4 cells/mL, and incubated at 37° C. for 24 hours. The supernatant was then aspirated and replaced with 100 μL of fresh growth medium containing various concentrations of both unmodified control and NO-releasing CD derivatives to each well. After incubation at 37° C. for 4 hours, the supernatant was aspirated and 100 μL of a mixture of DMEM/MTS/PMS (105/20/1, v/v/v) was added to each well. The absorbance of the resulting colored solutions over 3 hours incubation was quantified by using a ThermoScientific Multiskan EX plate reader (Waltham, Mass.) at 490 nm. The mixture of DMEM/MTS/PMS and untreated cells were used as a blank and control, respectively. Cell viability was calculated according to the following formula: […]
Despite effective bactericidal capability, the applicability of new antibacterial agents is also determined by their toxicity to mammalian cells. With respect to therapeutic potential, toxicity to mammalian cells is an important factor in the development of any new antibacterial agent. The cytotoxicity of CD-NONOates was evaluated by exposing mouse fibroblast cells to various concentrations (0˜2000 μg/mL) of both control and NO-releasing CD derivatives over a 4 hour exposure. […] Both CD-PA7/NO and CD-MA7/NO were tolerable to the mouse fibroblasts even at 2000 μg/mL (63% and 73% cell viability for CD-PA7/NO and CD-MA7/NO, respectively). […] The behavior is in part related to the effective delivery of NO induced by the fast cellular uptake of positively charged macromolecular systems. This behavior was also ascribed to the large amounts of terminal primary amines groups.

[1] = NO-release properties of NO-releasing cyclodextrins at pH 5.4 and pH 7.4 (Table 5); type: physicochemical
Protocol: Additional studies were carried out to investigate NO-release properties from β-cyclodextrin under conditions consistent with healthy tissue (pH 7.4) and those of tumor microenvironments (pH 5.4). These studies also evaluated the role of NO-release properties on anticancer action using A549 lung cancer cells with two modifications to vary release kinetics (mono- and hepta-substitution to vary NO totals). This study also evaluated the efficacy of a combined therapeutic (a nitric oxide releasing CD with DOX) as compared to each therapeutic agent individually. […] Several different functionalized CDs were prepared as shown in Table 5 and using techniques as described elsewhere herein. […] All modifications (PA, DETA, and DETA7) except for PA7 have t1/2 under 10 min.

[2] = tested on: A549 human lung carcinoma cells; assay: Anticancer action against A549 cells, 24 h MTS assay; type: cell-based; conditions: A549, 24 h MTS; error = 95% confidence interval for IC50
Protocol: Anticancer potential was evaluated against A549 human lung carcinoma cells using an MTS assay. […] All cell work performed in RPMI media and materials corrected for pH using 0.1 M HCl. […]

[3] = 4 h exposure, 3-log reduction in viability

Row | SMILES | MBC4 h (planktonic P. aeruginosa; [3]) | [NO]max ([1]; pH 5.4) | [NO]t ([1]; pH 5.4) | td ([1]; pH 5.4) | [NO]max ([1]; pH 7.4) | [NO]t ([1]; pH 7.4) | td ([1]; pH 7.4) | NO dose [2] | also measured
1 | NCCNCCNCC1OC2OC3C(CO)OC(OC4C(CO)OC(OC5C(CO)OC(OC6C(CO)OC(OC7C(CO)OC(OC8C(CO)OC(OC1C(O)C2O)C(O)C8O)C(O)C7O)C(O)C6O)C(O)C5O)C(O)C4O)C(O)C3O (stereo not drawn) [CD-DETA] | 8000 µg/mL | 32000 ± 2500 ppb mg^−1 | 0.74 ± 0.04 µmol/mg | 14.6 ± 0.8 h | 900 ± 100 ppb mg^−1 | 0.68 ± 0.03 µmol/mg | 20.2 ± 0.6 h | 1.07 ± 0.06 µmol/mL | MBC4 h (planktonic P. aeruginosa; 4 h exposure): 8000 µg/mL; L929 viability (L929 mouse fibroblasts; up to 2 mg/mL): > 60%
2 | NCCNCCN [DETA, diethylenetriamine] |  |  |  |  |  |  |  |  | bactericidal efficacy (in words) (planktonic P. aeruginosa; 4 h incubation): highly antimicrobial; MBC (planktonic P. aeruginosa; 4 h exposure, 3-log reduction in viability, read-out: MBC4 h): 250 µg/mL (≈ 2420 µM); concentration at which toxic (L929 mouse fibroblasts; FIG. 21e): 4 mg/mL
3 | CC(CN1c2ccccc2Sc2ccccc21)N(C)C (stereo not drawn) [PM, promethazine] |  |  |  |  |  |  |  |  | MBC (planktonic P. aeruginosa; concentration of PM, PM and CD derivative 1:1 molar, read-out: PM MBC4 h): 100 µg/mL (≈ 352 µM); MBC4h for PM (planktonic P. aeruginosa; concentration of PM): 100 µg/mL; cytotoxicity at MBC4h concentration (in words) (L929 mouse fibroblasts): toxic to the vast majority of the mouse fibroblast cells
4 | NCCN(CCN)/[N+]([O-])=N/O [DETA/NO] | 1000 µg/mL |  |  |  |  |  |  |  | 
5 | CCCNCC1OC2OC3C(CO)OC(OC4C(CO)OC(OC5C(CO)OC(OC6C(CO)OC(OC7C(CO)OC(OC8C(CO)OC(OC1C(O)C2O)C(O)C8O)C(O)C7O)C(O)C6O)C(O)C5O)C(O)C4O)C(O)C3O (stereo not drawn) [CD-PA] |  | 25100 ± 5700 ppb mg^−1 | 0.56 ± 0.09 µmol/mg | 5.0 ± 0.8 h | 2100 ± 300 ppb mg^−1 | 0.60 ± 0.07 µmol/mg | 17.0 ± 1.0 h | 0.97 ± 0.16 µmol/mL | 
